Measured values as given in article PMC9516332 (Frontiers in Oncology, 2022).
Where two headings read alike, the source gives them in different places.

What was measured:
Assay in all cases: Kinase panel profiling at 1 µmol/L (MSA or IMAP), percentage inhibition
Format in all cases: biochemical
[1] = molecular target: panel of 255 wild-type kinases (Homo sapiens, UniProt Q15303); conditions: read-out: %-inhibition at 1 µmol/L, HER4
[2] = molecular target: panel of 255 wild-type kinases (Homo sapiens, UniProt P29317); conditions: kinase EPHA2; 1 µmol/L single concentration; read-out: %-inhibition at 1 µmol/L, EPHA2
[3] = molecular target: panel of 255 wild-type kinases (Homo sapiens, UniProt Q5VT25); conditions: MRCKα; 1 µmol/L single concentration; read-out: %-inhibition, MRCKα
[4] = molecular target: panel of 255 wild-type kinases (Homo sapiens, UniProt P05129); conditions: kinase PKCγ; 1 µmol/L single concentration; read-out: %-inhibition at 1 µmol/L, PKCγ
[5] = molecular target: T1, panel of 255 wild-type kinases (Homo sapiens, UniProt Q13237); conditions: CGK2 kinase assay; 1 µmol/L single concentration; read-out: %-inhibition CGK2
T1 sequence (Q13237 1-762): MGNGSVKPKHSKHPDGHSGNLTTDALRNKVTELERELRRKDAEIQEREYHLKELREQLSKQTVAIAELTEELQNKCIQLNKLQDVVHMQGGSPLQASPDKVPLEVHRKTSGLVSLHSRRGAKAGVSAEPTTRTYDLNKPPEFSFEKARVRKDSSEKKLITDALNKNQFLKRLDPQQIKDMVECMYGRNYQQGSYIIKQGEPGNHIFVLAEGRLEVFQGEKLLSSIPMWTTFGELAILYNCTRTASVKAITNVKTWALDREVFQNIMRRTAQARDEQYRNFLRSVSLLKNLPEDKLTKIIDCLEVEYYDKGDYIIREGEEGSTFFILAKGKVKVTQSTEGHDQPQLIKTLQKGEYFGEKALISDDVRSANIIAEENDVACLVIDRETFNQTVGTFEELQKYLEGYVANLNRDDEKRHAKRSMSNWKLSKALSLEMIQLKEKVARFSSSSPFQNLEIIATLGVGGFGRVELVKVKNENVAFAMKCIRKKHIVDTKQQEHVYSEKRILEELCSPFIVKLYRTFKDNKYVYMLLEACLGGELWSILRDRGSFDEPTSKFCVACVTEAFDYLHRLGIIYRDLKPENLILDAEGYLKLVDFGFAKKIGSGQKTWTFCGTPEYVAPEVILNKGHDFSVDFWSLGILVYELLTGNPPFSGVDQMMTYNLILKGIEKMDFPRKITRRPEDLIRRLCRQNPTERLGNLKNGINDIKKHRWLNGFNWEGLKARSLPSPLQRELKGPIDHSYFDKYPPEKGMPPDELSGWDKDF

[6] = molecular target: panel of 255 wild-type kinases (Homo sapiens, UniProt P29597); conditions: kinase TYK2; 1 µmol/L single concentration; read-out: %-inhibition at 1 µmol/L, TYK2
[7] = molecular target: T2, panel of 255 wild-type kinases (Homo sapiens, UniProt P29320); conditions: kinase EPHA3; 1 µmol/L single concentration; read-out: %-inhibition at 1 µmol/L, EPHA3
T2 sequence (P29320 21-983): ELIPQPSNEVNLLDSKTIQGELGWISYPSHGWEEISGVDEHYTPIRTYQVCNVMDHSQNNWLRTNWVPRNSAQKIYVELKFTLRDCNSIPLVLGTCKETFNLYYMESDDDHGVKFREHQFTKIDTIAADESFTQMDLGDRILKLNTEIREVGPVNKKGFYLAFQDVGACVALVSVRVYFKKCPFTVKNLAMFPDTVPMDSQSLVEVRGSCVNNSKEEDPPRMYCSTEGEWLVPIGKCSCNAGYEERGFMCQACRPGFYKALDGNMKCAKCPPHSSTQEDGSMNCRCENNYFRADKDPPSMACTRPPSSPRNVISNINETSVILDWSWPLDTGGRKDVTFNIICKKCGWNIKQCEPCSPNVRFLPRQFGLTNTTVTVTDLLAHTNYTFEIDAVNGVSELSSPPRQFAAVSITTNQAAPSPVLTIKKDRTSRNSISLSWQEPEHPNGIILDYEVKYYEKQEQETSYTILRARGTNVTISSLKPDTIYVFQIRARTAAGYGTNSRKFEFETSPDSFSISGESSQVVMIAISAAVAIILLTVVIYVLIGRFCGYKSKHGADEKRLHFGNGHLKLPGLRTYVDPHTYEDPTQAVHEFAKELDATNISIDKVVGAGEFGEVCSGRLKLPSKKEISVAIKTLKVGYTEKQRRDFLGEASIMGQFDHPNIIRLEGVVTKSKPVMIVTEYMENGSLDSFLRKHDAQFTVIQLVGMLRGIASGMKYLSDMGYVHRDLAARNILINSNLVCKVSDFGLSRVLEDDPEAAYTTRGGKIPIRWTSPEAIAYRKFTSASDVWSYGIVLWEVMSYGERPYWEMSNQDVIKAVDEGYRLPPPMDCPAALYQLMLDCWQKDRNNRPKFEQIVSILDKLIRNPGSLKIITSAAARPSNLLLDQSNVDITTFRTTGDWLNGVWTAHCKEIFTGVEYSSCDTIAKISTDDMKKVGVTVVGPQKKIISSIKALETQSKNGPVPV

[8] = molecular target: panel of 255 wild-type kinases (Homo sapiens, UniProt P27361); conditions: kinase Erk1; 1 µmol/L single concentration; read-out: %-inhibition at 1 µmol/L, Erk1
[9] = molecular target: panel of 255 wild-type kinases (Homo sapiens, UniProt P53355); conditions: kinase DAPK1; 1 µmol/L single concentration; read-out: %-inhibition at 1 µmol/L, DAPK1
[10] = molecular target: panel of 255 wild-type kinases (Homo sapiens, UniProt Q9H4B4); conditions: kinase PLK3; 1 µmol/L single concentration; read-out: %-inhibition at 1 µmol/L, PLK3
[11] = molecular target: panel of 255 wild-type kinases (Homo sapiens, UniProt Q9H0K1); conditions: kinase QIK; 1 µmol/L single concentration; read-out: %-inhibition at 1 µmol/L, QIK
[12] = molecular target: panel of 255 wild-type kinases (Homo sapiens, UniProt P08581); conditions: MET; 1 µmol/L single concentration
[13] = kinase HER4, 1 µmol/L single concentration

| SMILES | inhibition at 1 µM [1, 13] [%] | inhibition at 1 µM [2] [%] | inhibition at 1 µM [3] [%] | inhibition at 1 µM [4] [%] | inhibition at 1 µM [5] [%] | inhibition at 1 µM [6] [%] | inhibition at 1 µM [7] [%] | inhibition at 1 µM [8] [%] | inhibition at 1 µM [9] [%] | inhibition at 1 µM [10] [%] | inhibition at 1 µM [11] [%] | inhibition at 1 µM [12] [%] | inhibition at 1 µM [1] [%] |
| --- | --- | --- | --- | --- | --- | --- | --- | --- | --- | --- | --- | --- | --- |
| C[C@H]1Oc2cc(cnc2N)-c2c(nn(C)c2C#N)CN(C)C(=O)c2ccc(F)cc21 [lorlatinib] | 11 | 45 | -6 | -3.74 | -3 | 5 | 4.35 | 3 | 6.55 | 2.15 | 2.53 | 4.66 |  |
| CCN1C(=O)N(c2c(F)c(OC)cc(OC)c2F)Cc2cnc3[nH]c(CN4CCOCC4)cc3c21 [pemigatinib] | 5 | -3.69 | -3.23 | -0.948 | 1.58 | -6.39 | 0.534 | -8.52 | -4.25 | -1.19 | 6.5 | -2.49 |  |
| CCn1c(=O)c(-c2cc(NC(=O)Nc3ccccc3)c(F)cc2Br)cc2cnc(NC)cc21 [ripretinib] | 36 | 100 | -1.14 | 0.0973 | 0.547 | 4.46 | 88 | 2.79 | -10 | 4 | 7 | 8 |  |
| C=CC(=O)N1CCC([C@@H]2CCNc3c(C(N)=O)c(-c4ccc(Oc5ccccc5)cc4)nn32)CC1 [zanubrutinib] |  | -1.86 | -0.931 | -2.24 | -0.389 | -2.32 | -0.0989 | -9 | -2 | -4.39 | -4 | -2.35 | 99 |

Second part, led by results:

| inhibition at 1 µM [1, 13] [%] | inhibition at 1 µM [2] [%] | inhibition at 1 µM [3] [%] | inhibition at 1 µM [4] [%] | inhibition at 1 µM [5] [%] | inhibition at 1 µM [6] [%] | inhibition at 1 µM [7] [%] | inhibition at 1 µM [8] [%] | inhibition at 1 µM [9] [%] | inhibition at 1 µM [10] [%] | inhibition at 1 µM [11] [%] | inhibition at 1 µM [12] [%] | SMILES | inhibition at 1 µM [1] [%] |
| --- | --- | --- | --- | --- | --- | --- | --- | --- | --- | --- | --- | --- | --- |
| 10 | 0 | 0.38 | -1.62 | -0.443 | -0.368 | 0.702 | -14 | -4 | -0.714 | -6.33 | -4 | O=C(Nc1cnn2ccc(N3CCC[C@@H]3c3cc(F)ccc3F)nc12)N1CC[C@H](O)C1 [larotrectinib] |  |
| 53 | 62 | 1.82 | 1.41 | 25 | 91 | 32 | -3 | 53 | -0.12 | -2.55 | 5.27 | CO[C@]1(C(=O)N[C@@H](C)c2ccc(-n3cc(F)cn3)nc2)CC[C@H](c2nc(C)cc(Nc3cc(C)[nH]n3)n2)CC1 [pralsetinib] |  |
| 7.42 | 49 | -2.65 | -0.427 | 16 | 3.39 | 49 | -7.44 | 26 | -1.64 | -2.53 | 23 | COc1ccc(CN2C3CC2CN(c2ccc(-c4cc(OCC(C)(C)O)cn5ncc(C#N)c45)cn2)C3)cn1 [selpercatinib] |  |
| 33 | -1.4 | 2.24 | -0.133 | -1.64 | -3 | -8 | -4.67 | 2.59 | 0.774 | -4 | -0.807 | Cn1cnc2c(F)c(Nc3ccc(Br)cc3Cl)c(C(=O)NOCCO)cc21 [selumetinib] |  |
| 94 | 2 | 0.364 | -1.73 | -0.162 | 4.71 | -10 | -2.6 | 1.6 | 1.59 | -2.58 | 5.33 | Cc1cc(Nc2ncnc3ccc(NC4=NC(C)(C)CO4)cc23)ccc1Oc1ccn2ncnc2c1 [tucatinib] |  |
